Experimental data: US20240287045A1, “CRYSTAL FORM OF PYRIMIDINE DERIVATIVE AND PREPARATION METHOD THEREFOR” (ZHEJIANG HISUN PHARMACEUTICAL CO., LTD., priority 2021, published 2024)

How the values were obtained:
Type in all cases: physicochemical
[1] = Granularity experiment (D50, D90); settings: for D50 / D90: granularity
Description: (§1) The amorphous form of the compound of formula I prepared in Preparation Example, the crystal form A of the compound of formula I prepared in Example 1, the crystal form B of the compound of formula I prepared in Example 32, the crystal form C of the compound of formula I prepared in Example 48, the crystal form D of the compound of formula I prepared in Example 51, and the crystal form E of the compound of formula I prepared in Example 54 were measured for granularity, and the specific results are shown in Table 7 below: […]

[2] = Fluidity test (angle of repose); settings: for fluidity / angle of repose (in words): crystal forms compared with amorphous form
Description: as §1, with “angle of repose,” for “granularity,”, “8” for “7”

[3] = Hygroscopicity test; settings: for Hygroscopicity: 75% RH and 25° C. for 24 h, by weighing; for hygroscopicity (in words): crystal forms compared with amorphous form
Description: (§2) The amorphous form of the compound of formula I prepared in Preparation Example, the crystal form A of the compound of formula I prepared in Example 1, the crystal form B of the compound of formula I prepared in Example 32, the crystal form C of the compound of formula I prepared in Example 48, the crystal form D of the compound of formula I prepared in Example 51, and the crystal form E of the compound of formula I prepared in Example 54 were placed in an environment of 75% RH and 25° C. for 24 h and then weighed to calculate the hygroscopicity, respectively.

[4] = Stability experiment: purity after 10 days of humidity, heat or light; settings: for stability compared with the amorphous form: conclusion from Table 6
Description: High-performance liquid chromatography (HPLC) test conditions involved in the present disclosure: the model of the liquid chromatograph was Agilent 1260; the chromatographic column was Waters XBridge C18 150*4.6 mm 3.5 μm; the detection wavelength was 234 nm; and the column temperature was 25° C.
as §2, with “75% RH, 92.5% RH, 40° C., 60° C. and light for 10 days respectively, and the X-ray powder diffraction pattern and purity” for “an environment”, “each crystal form were measured.” for “75% RH and 25° C. for 24 h and then weighed to calculate the hygroscopicity, respectively.”

| SMILES | D50 relative to the crystal forms ([1]; amorphous form D50 as share of crystal forms A-E) | D90 relative to the crystal forms ([1]; amorphous form D90 as share of crystal forms A-E) | granularity (in words) ([1]; compared with crystal forms A-E) | D50 [1] | D90 [1] | D50 ([1]; listed as amorphous form) | D90 ([1]; listed as amorphous form) | fluidity / angle of repose (in words) [2] | angle of repose ([2]; measurement 1) | angle of repose ([2]; measurement 2) | angle of repose ([2]; measurement 3) | Hygroscopicity [3] | hygroscopicity (in words) [3] | purity ([4]; 40° C. for 10 days) | purity ([4]; 60° C. for 10 days) | purity ([4]; 75% RH for 10 days) | purity ([4]; 92.5% RH for 10 days) | purity ([4]; Day 0) | purity ([4]; Light for 10 days) | stability compared with the amorphous form [4] |
| --- | --- | --- | --- | --- | --- | --- | --- | --- | --- | --- | --- | --- | --- | --- | --- | --- | --- | --- | --- | --- |
| C=CC(=O)Nc1cc(N2CCN(CC)C3(CC3)C2)ccc1Nc1cc(N(C)C(=O)Nc2c(Cl)c(OC)cc(OC)c2Cl)ncn1 [Amorphous form, N-(2-((6-(3-(2,6-dichloro-3,5-dimethoxyphenyl)-1-methylureido)pyrimidin-4-yl)amino)-5-(4-ethyl-4,7-diazaspiro[2.5]octan-7-yl)phenyl)acrylamide] | ≤ 13% | ≤ 33% | remarkably small granularity | 2.68 μm | 22.82 μm | 2.68 μm | 22.82 μm | significantly larger | 43.3° | 42.6° | 41.9° | 0.52% | significantly greater | 94.67 | 94.73 | 94.93 | 94.83 | 95.33 | 94.97 | – |
| C=CC(=O)Nc1cc(N2CCN(CC)C3(CC3)C2)ccc1Nc1cc(N(C)C(=O)Nc2c(Cl)c(OC)cc(OC)c2Cl)ncn1 [Crystal form A, N-(2-((6-(3-(2,6-dichloro-3,5-dimethoxyphenyl)-1-methylureido)pyrimidin-4-yl)amino)-5-(4-ethyl-4,7-diazaspiro[2.5]octan-7-yl)phenyl)acrylamide] | – | – | – | 22.37 μm | 72.86 μm | – | – | significantly better than the amorphous form in terms of fluidity | 33.4° | 31.8° | 33.7° | 0.10% | significantly better than the amorphous form in terms of hygroscopicity | 99.83 | 99.81 | 99.85 | 99.83 | 99.87 | 99.87 | better stability |
| C=CC(=O)Nc1cc(N2CCN(CC)C3(CC3)C2)ccc1Nc1cc(N(C)C(=O)Nc2c(Cl)c(OC)cc(OC)c2Cl)ncn1 [Crystal form B, N-(2-((6-(3-(2,6-dichloro-3,5-dimethoxyphenyl)-1-methylureido)pyrimidin-4-yl)amino)-5-(4-ethyl-4,7-diazaspiro[2.5]octan-7-yl)phenyl)acrylamide] | – | – | – | 21.98 μm | 71.56 μm | – | – | significantly better than the amorphous form in terms of fluidity | 34.6° | 35.7° | 35.2° | 0.12% | significantly better than the amorphous form in terms of hygroscopicity | 99.69 | 99.72 | 99.75 | 99.73 | 99.75 | 99.73 | better stability |
| C=CC(=O)Nc1cc(N2CCN(CC)C3(CC3)C2)ccc1Nc1cc(N(C)C(=O)Nc2c(Cl)c(OC)cc(OC)c2Cl)ncn1 [Crystal form C, N-(2-((6-(3-(2,6-dichloro-3,5-dimethoxyphenyl)-1-methylureido)pyrimidin-4-yl)amino)-5-(4-ethyl-4,7-diazaspiro[2.5]octan-7-yl)phenyl)acrylamide] | – | – | – | 21.77 μm | 70.88 μm | – | – | significantly better than the amorphous form in terms of fluidity | 34.2° | 35.4° | 33.9° | 0.15% | significantly better than the amorphous form in terms of hygroscopicity | 99.66 | 99.66 | 99.71 | 99.68 | 99.72 | 99.70 | better stability |
| C=CC(=O)Nc1cc(N2CCN(CC)C3(CC3)C2)ccc1Nc1cc(N(C)C(=O)Nc2c(Cl)c(OC)cc(OC)c2Cl)ncn1 [Crystal form D, N-(2-((6-(3-(2,6-dichloro-3,5-dimethoxyphenyl)-1-methylureido)pyrimidin-4-yl)amino)-5-(4-ethyl-4,7-diazaspiro[2.5]octan-7-yl)phenyl)acrylamide] | – | – | – | 20.98 μm | 70.49 μm | – | – | significantly better than the amorphous form in terms of fluidity | 35.6° | 36.2° | 35.1° | 0.16% | significantly better than the amorphous form in terms of hygroscopicity | 99.52 | 99.49 | 99.54 | 99.54 | 99.55 | 99.53 | better stability |
| C=CC(=O)Nc1cc(N2CCN(CC)C3(CC3)C2)ccc1Nc1cc(N(C)C(=O)Nc2c(Cl)c(OC)cc(OC)c2Cl)ncn1 [Crystal form E, N-(2-((6-(3-(2,6-dichloro-3,5-dimethoxyphenyl)-1-methylureido)pyrimidin-4-yl)amino)-5-(4-ethyl-4,7-diazaspiro[2.5]octan-7-yl)phenyl)acrylamide] | – | – | – | 20.98 μm | 69.99 μm | – | – | significantly better than the amorphous form in terms of fluidity | 35.5° | 36.1° | 35.9° | 0.20% | significantly better than the amorphous form in terms of hygroscopicity | 99.53 | 99.52 | 99.56 | 99.54 | 99.56 | 99.55 | better stability |
